Assay results as given in patent US9040067B2, “Disinfecting and antimicrobial compositions” (priority 2005, dated 2015).

How the values were obtained:
Assay type in all cases: cell-based
Listeria monocytogenes = assay: MIC/MLC in brain heart infusion broth; further: key: + = growth (inactive); − = no growth (active)
Experimental: (§1) The tests were carried out in 10 ml of brain heart infusion broth. The esters were serially diluted in brain heart infusion broth of samples of, 0.1, 0.2, 0.3, 0.4 and 0.5/10 ml and challenged with 0.1 ml of 1/100 dilution of 24 hr old brain heart infusion bacterial culture. The lowest concentration determined the minimum inhibitory concentration (MIC). The samples were observed after 48 hrs at 37° C. A loopful from tubes without growth were plated on BHI agar plates and observed for growth for 24 to 48 hrs at 37° C. The samples with the lowest concentration of the ester without bacterial growth on the plates represented the minimum lethal concentration (MLC).
(§2) A series of samples of (a) methyl lactate, (b) ethyl lactate and (c) butyl lactate, alone, and in admixture with varying amounts of decyl lactate and sodium dodecyl sulfates were used to test minimum inhibitory activity (MIC) by the method described in Example II, against the cultures of E. coli 0157 H7, Listeria monocytogenes, Staphylococcus aureus, Salmonella typhi, and Pseudomonas aeruginosa.

Pseudomonas aeruginosa = assay: MIC/MLC in brain heart infusion broth; conditions: for MIC, Concentration of Lactic Esters 0.5%: 0.5% ester; for MIC, Concentration of Lactic Esters 1%: 1% ester; for MIC, Concentration of Lactic Esters 2%: 2% ester; for MIC, Concentration of Lactic Esters 3%: 3% ester; for MIC, Concentration of Lactic Esters 4%: 4% ester; for MIC, Concentration of Lactic Esters 5%: 5% ester; on all read-outs here: key: + = growth (inactive); − = no growth (active)
Experimental: as §1, §2

Saccharomyces cerevisiae = assay: MIC and MLC against yeast in Sab. broth; conditions: for Lethal (MLC) Concentration 1% / Inhibitory (MIC) Concentration 1%: 1% ester; for Lethal (MLC) Concentration 1.5% / Inhibitory (MIC) Concentration 1.5%: 1.5% ester; for Lethal (MLC) Concentration 2% / Inhibitory (MIC) Concentration 2%: 2% ester; for Lethal (MLC) Concentration 3% / Inhibitory (MIC) Concentration 3%: 3% ester; for Lethal (MLC) Concentration 4% / Inhibitory (MIC) Concentration 4%: 4% ester; on Lethal (MLC) Concentration 1%: key: + = growth (inactive); − = no growth (active); on Lethal (MLC) Concentration 1.5%: key: + = growth (inactive); − = no growth (active); on Lethal (MLC) Concentration 2%: key: + = growth (inactive); − = no growth (active); on Lethal (MLC) Concentration 3%: key: + = growth (inactive); − = no growth (active); on Lethal (MLC) Concentration 4%: key: + = growth (inactive); − = no growth (active)
Experimental: A 0.1 ml of 1/100 dilution of 48 hr old culture of S. cerevisiae was used as inoculum. The test was performed using Sab. broth. The tubes were incubated at room temperature 25° C. The test was read after 48 hrs.

CCCCOC(=O)C(C)O (stereo not shown) [Butyl lactate, butyl lactate]
MLC, Concentration of Butyl lactate 0.5% (Listeria monocytogenes; 0.5%): + | MLC, Concentration of Butyl lactate 1% (Listeria monocytogenes; 1%): + | MLC, Concentration of Butyl lactate 2% (Listeria monocytogenes; 2%): − | MLC, Concentration of Butyl lactate 3% (Listeria monocytogenes; 3%): − | MLC, Concentration of Butyl lactate 4% (Listeria monocytogenes; 4%): − | MLC, Concentration of Butyl lactate 5% (Listeria monocytogenes; 5%): − | MLC, Concentration of Butyl lactate 0.5% (Pseudomonas aeruginosa; 0.5%): + | MIC, Concentration of Lactic Esters 0.5% (Pseudomonas aeruginosa; SDS 0.0 ppm): + | MIC, Concentration of Lactic Esters 0.5% (Pseudomonas aeruginosa; SDS 50 ppm): − | MIC, Concentration of Lactic Esters 0.5% (Pseudomonas aeruginosa; SDS 100 ppm): − | MIC, Concentration of Lactic Esters 0.5% (Pseudomonas aeruginosa; SDS 200 ppm): − | MLC, Concentration of Butyl lactate 1% (Pseudomonas aeruginosa; 1%): + | MIC, Concentration of Lactic Esters 1% (Pseudomonas aeruginosa; SDS 0.0 ppm): + | MIC, Concentration of Lactic Esters 1% (Pseudomonas aeruginosa; SDS 50 ppm): − | MIC, Concentration of Lactic Esters 1% (Pseudomonas aeruginosa; SDS 100 ppm): − | MIC, Concentration of Lactic Esters 1% (Pseudomonas aeruginosa; SDS 200 ppm): − | MLC, Concentration of Butyl lactate 2% (Pseudomonas aeruginosa; 2%): + | MIC, Concentration of Lactic Esters 2% (Pseudomonas aeruginosa; SDS 0.0 ppm): − | MIC, Concentration of Lactic Esters 2% (Pseudomonas aeruginosa; SDS 50 ppm): − | MIC, Concentration of Lactic Esters 2% (Pseudomonas aeruginosa; SDS 100 ppm): − | MIC, Concentration of Lactic Esters 2% (Pseudomonas aeruginosa; SDS 200 ppm): − | MLC, Concentration of Butyl lactate 3% (Pseudomonas aeruginosa; 3%): − | MIC, Concentration of Lactic Esters 3% (Pseudomonas aeruginosa; SDS 0.0 ppm): − | MIC, Concentration of Lactic Esters 3% (Pseudomonas aeruginosa; SDS 50 ppm): − | MIC, Concentration of Lactic Esters 3% (Pseudomonas aeruginosa; SDS 100 ppm): − | MIC, Concentration of Lactic Esters 3% (Pseudomonas aeruginosa; SDS 200 ppm): − | MLC, Concentration of Butyl lactate 4% (Pseudomonas aeruginosa; 4%): − | MIC, Concentration of Lactic Esters 4% (Pseudomonas aeruginosa; SDS 0.0 ppm): − | MIC, Concentration of Lactic Esters 4% (Pseudomonas aeruginosa; SDS 50 ppm): − | MIC, Concentration of Lactic Esters 4% (Pseudomonas aeruginosa; SDS 100 ppm): − | MIC, Concentration of Lactic Esters 4% (Pseudomonas aeruginosa; SDS 200 ppm): − | MLC, Concentration of Butyl lactate 5% (Pseudomonas aeruginosa; 5%): − | MIC, Concentration of Lactic Esters 5% (Pseudomonas aeruginosa; SDS 0.0 ppm): − | MIC, Concentration of Lactic Esters 5% (Pseudomonas aeruginosa; SDS 50 ppm): − | MIC, Concentration of Lactic Esters 5% (Pseudomonas aeruginosa; SDS 100 ppm): − | MIC, Concentration of Lactic Esters 5% (Pseudomonas aeruginosa; SDS 200 ppm): − | Lethal (MLC) Concentration 1% (Saccharomyces cerevisiae): − | Inhibitory (MIC) Concentration 1% (Saccharomyces cerevisiae; 48 hrs, 25° C): − | Inhibitory (MIC) Concentration 1% (Saccharomyces cerevisiae; Sodium lauryl sulfate 200 ppm): − | Lethal (MLC) Concentration 1% (Saccharomyces cerevisiae; Sodium lauryl sulfate 200 ppm): − | Lethal (MLC) Concentration 1.5% (Saccharomyces cerevisiae): − | Inhibitory (MIC) Concentration 1.5% (Saccharomyces cerevisiae; 48 hrs, 25° C): − | Inhibitory (MIC) Concentration 1.5% (Saccharomyces cerevisiae; Sodium lauryl sulfate 200 ppm): − | Lethal (MLC) Concentration 1.5% (Saccharomyces cerevisiae; Sodium lauryl sulfate 200 ppm): − | Lethal (MLC) Concentration 2% (Saccharomyces cerevisiae): − | Inhibitory (MIC) Concentration 2% (Saccharomyces cerevisiae; 48 hrs, 25° C): − | Inhibitory (MIC) Concentration 2% (Saccharomyces cerevisiae; Sodium lauryl sulfate 200 ppm): − | Lethal (MLC) Concentration 2% (Saccharomyces cerevisiae; Sodium lauryl sulfate 200 ppm): − | Lethal (MLC) Concentration 3% (Saccharomyces cerevisiae): − | Inhibitory (MIC) Concentration 3% (Saccharomyces cerevisiae; 48 hrs, 25° C): − | Inhibitory (MIC) Concentration 3% (Saccharomyces cerevisiae; Sodium lauryl sulfate 200 ppm): − | Lethal (MLC) Concentration 3% (Saccharomyces cerevisiae; Sodium lauryl sulfate 200 ppm): − | Lethal (MLC) Concentration 4% (Saccharomyces cerevisiae): − | Inhibitory (MIC) Concentration 4% (Saccharomyces cerevisiae; 48 hrs, 25° C): − | Inhibitory (MIC) Concentration 4% (Saccharomyces cerevisiae; Sodium lauryl sulfate 200 ppm): − | Lethal (MLC) Concentration 4% (Saccharomyces cerevisiae; Sodium lauryl sulfate 200 ppm): −

COC(=O)C(C)O (stereo not shown) [Methyl lactate, methyl lactate]
MIC, Concentration of Lactic Esters 0.5% (Pseudomonas aeruginosa; SDS 0.0 ppm): + | MIC, Concentration of Lactic Esters 0.5% (Pseudomonas aeruginosa; SDS 50 ppm): − | MIC, Concentration of Lactic Esters 0.5% (Pseudomonas aeruginosa; SDS 100 ppm): − | MIC, Concentration of Lactic Esters 0.5% (Pseudomonas aeruginosa; SDS 200 ppm): − | MIC, Concentration of Lactic Esters 1% (Pseudomonas aeruginosa; SDS 0.0 ppm): + | MIC, Concentration of Lactic Esters 1% (Pseudomonas aeruginosa; SDS 50 ppm): − | MIC, Concentration of Lactic Esters 1% (Pseudomonas aeruginosa; SDS 100 ppm): − | MIC, Concentration of Lactic Esters 1% (Pseudomonas aeruginosa; SDS 200 ppm): − | MIC, Concentration of Lactic Esters 2% (Pseudomonas aeruginosa; SDS 0.0 ppm): − | MIC, Concentration of Lactic Esters 2% (Pseudomonas aeruginosa; SDS 50 ppm): − | MIC, Concentration of Lactic Esters 2% (Pseudomonas aeruginosa; SDS 100 ppm): − | MIC, Concentration of Lactic Esters 2% (Pseudomonas aeruginosa; SDS 200 ppm): − | MIC, Concentration of Lactic Esters 3% (Pseudomonas aeruginosa; SDS 0.0 ppm): − | MIC, Concentration of Lactic Esters 3% (Pseudomonas aeruginosa; SDS 50 ppm): − | MIC, Concentration of Lactic Esters 3% (Pseudomonas aeruginosa; SDS 100 ppm): − | MIC, Concentration of Lactic Esters 3% (Pseudomonas aeruginosa; SDS 200 ppm): − | MIC, Concentration of Lactic Esters 4% (Pseudomonas aeruginosa; SDS 0.0 ppm): − | MIC, Concentration of Lactic Esters 4% (Pseudomonas aeruginosa; SDS 50 ppm): − | MIC, Concentration of Lactic Esters 4% (Pseudomonas aeruginosa; SDS 100 ppm): − | MIC, Concentration of Lactic Esters 4% (Pseudomonas aeruginosa; SDS 200 ppm): − | MIC, Concentration of Lactic Esters 5% (Pseudomonas aeruginosa; SDS 0.0 ppm): − | MIC, Concentration of Lactic Esters 5% (Pseudomonas aeruginosa; SDS 50 ppm): − | MIC, Concentration of Lactic Esters 5% (Pseudomonas aeruginosa; SDS 100 ppm): − | MIC, Concentration of Lactic Esters 5% (Pseudomonas aeruginosa; SDS 200 ppm): − | Lethal (MLC) Concentration 1% (Saccharomyces cerevisiae): + | Inhibitory (MIC) Concentration 1% (Saccharomyces cerevisiae; 48 hrs, 25° C): + | Inhibitory (MIC) Concentration 1% (Saccharomyces cerevisiae; Sodium lauryl sulfate 200 ppm): + | Lethal (MLC) Concentration 1% (Saccharomyces cerevisiae; Sodium lauryl sulfate 200 ppm): + | Lethal (MLC) Concentration 1.5% (Saccharomyces cerevisiae): + | Inhibitory (MIC) Concentration 1.5% (Saccharomyces cerevisiae; 48 hrs, 25° C): + | Inhibitory (MIC) Concentration 1.5% (Saccharomyces cerevisiae; Sodium lauryl sulfate 200 ppm): + | Lethal (MLC) Concentration 1.5% (Saccharomyces cerevisiae; Sodium lauryl sulfate 200 ppm): + | Lethal (MLC) Concentration 2% (Saccharomyces cerevisiae): + | Inhibitory (MIC) Concentration 2% (Saccharomyces cerevisiae; 48 hrs, 25° C): + | Inhibitory (MIC) Concentration 2% (Saccharomyces cerevisiae; Sodium lauryl sulfate 200 ppm): + | Lethal (MLC) Concentration 2% (Saccharomyces cerevisiae; Sodium lauryl sulfate 200 ppm): + | Lethal (MLC) Concentration 3% (Saccharomyces cerevisiae): − | Inhibitory (MIC) Concentration 3% (Saccharomyces cerevisiae; 48 hrs, 25° C): − | Inhibitory (MIC) Concentration 3% (Saccharomyces cerevisiae; Sodium lauryl sulfate 200 ppm): − | Lethal (MLC) Concentration 3% (Saccharomyces cerevisiae; Sodium lauryl sulfate 200 ppm): − | Lethal (MLC) Concentration 4% (Saccharomyces cerevisiae): − | Inhibitory (MIC) Concentration 4% (Saccharomyces cerevisiae; 48 hrs, 25° C): − | Inhibitory (MIC) Concentration 4% (Saccharomyces cerevisiae; Sodium lauryl sulfate 200 ppm): − | Lethal (MLC) Concentration 4% (Saccharomyces cerevisiae; Sodium lauryl sulfate 200 ppm): −
